Test results reported in a melting point compilation (Tetko et al.; mined from patent text by program, amines drawn as free bases though some values may be those of a salt).

| SMILES | melting point [°C] |
| --- | --- |
| CCC1(CCCCl)C(=O)Nc2ccccc21 (stereo not drawn) | 91 to 93 |
| CCn1nc(-c2ccccc2)c(C(C)=O)c([N+](=O)[O-])c1=O | 226 to 227 |
| COc1cc2cc(C(C#N)N3CCOCC3)sc2cc1OC (stereo not drawn) | 196 to 199 |
| O=C(O)c1cn(CC(F)(F)F)c2c(F)c(F)c(F)cc2c1=O | 205 to 207 |
| O=C(O)c1ccc(C2=CCC3CCC2C3)cc1 (stereo not drawn) | 180 to 181 |
| COc1ccc(CCN2CCc3cc(O)c(OC)cc3C2)cc1 | 170 to 171 |
| O=C=NC(=O)CS(=O)(=O)c1ccc2ccccc2c1 | 152 to 155 |
| COc1ccc(C(=O)n2c(C)c(Cc3cc(=O)n(C4CCCCC4)[nH]3)c3cc(OC)ccc32)cc1 | 88 to 90 |
| Cn1nc(C(F)(F)F)c(C(=O)Nc2cccc3c2CCC3(C)C)c1Cl | 120 |
| CCCCCCCCCCC1(C)OCC(C=Cc2ccc(-c3ccccc3)cc2)OO1 (stereo not drawn) | 86 to 90 |
| CC(C)=NOc1cc(OCc2ccccc2)ccc1C#N | 102 |
| CC[C@H](C)[C@H](NC[C@@H](N)CS)C(=O)N[C@@H](Cc1ccccc1)C(=O)N[C@@H](CCSC)C(=O)OCc1ccccc1 | 71 to 78 |
| N#Cc1ccc(COc2ccc(CC(NC(=O)c3cc4ccc(-c5ccc(Cl)cc5)cc4o3)C(=O)O)cc2)cc1 (stereo not drawn) | 204 |
| CC(=O)N1C(=CC(C#N)=C2OC(CO)CN2C)C(=O)c2ccccc21 (stereo not drawn) | 218 to 220 |
| Cn1c(=S)ccc2ccccc21 | 114 |
| CCCc1nc2c(N)nc3cc(OCc4cccc(Cl)c4)ccc3c2n1CC(C)C | 182 to 183 |
| CCCCNC(=O)OCCCc1ccc(OCCOC)cc1Oc1ncc(C(F)(F)F)cc1Cl | 91.7 to 91.8 |
| COCc1cc(O)n2nc(SCc3ccccc3)nc2n1 | 213 |
| CS(=O)(=O)c1ccc(-c2ccccc2N)cc1 | 164 to 165 |
| COc1c(O)c([N+](=O)[O-])cc(C(=O)c2ccccc2)c1Cl | 143 to 145 |
| CCN1CCN(CCN2CC[C@H](NC(=O)c3cc(Cl)c(N)cc3OC)[C@H](OC)C2)C1=O (relative stereo) | 153 |
| COC(=O)c1cc2cc([N+](=O)[O-])c(OCc3ccccc3)cc2[nH]1 | 184 to 187 |
| CC(C)(C)OC(=O)N1CCC(n2cc(-c3ccc(Oc4ccccc4)cc3)c3c(N)ncnc32)C1 (stereo not drawn) | 168 to 170 |

| SMILES | melting point [°C] |
| --- | --- |
| O=C1Nc2ccccc2C(=O)N2CC[C@@H]12 | 217 to 218 |
| COc1ccc2c(c1)C(=O)N(c1ccc(C(C)CO)cc1)C2 (stereo not drawn) | 135 to 138 |
| N#Cc1cnc2sc(C#Cc3ccccn3)cc2c1Nc1ccc2[nH]ccc2c1 | > 260 |
| CCCCc1nc(SC)c(C(=O)O)n1Cc1ccc(-c2ccccc2C(=O)O)cc1 | 220 |
| Cc1nn(-c2ccccn2)cc1COc1ccc(CO)cc1 | 83 to 84 |
| Cc1nc(-c2ccc3ccc(Cn4c(C(C)C)nc5cc[nH]c(=O)c54)cc3c2)no1 | 214 to 215 |
| O=C1c2ccccc2C(=O)N1CC(=O)N1c2ccccc2N(Cc2cccc([N+](=O)[O-])c2)C(=O)[C@H]2CCC[C@H]21 (relative stereo) | 250 to 252 |
| COc1ccc(-c2ccc(C(C)=O)cc2)cc1 | 156 |
| CCOC(=O)C(=CNc1ccc(OCC)nc1)C(=O)OCC | 68 to 71 |
| COC(=O)N=C(NC(=O)OC)Nc1ccc(SCC(C)C)cc1NC(=O)CSC | 138 to 140 |
| COc1ccc(Nc2nccc3ccn(S(=O)(=O)c4ccc(OC)cc4)c23)cc1 | 156 to 158 |
| CC(=O)NC[C@H]1CN(c2ccc(N3CCC(F)(CN)CC3)c(F)c2)C(=O)O1 | 152 to 155 |
| C=C(F)CONC(=O)c1nc(-c2ccc(Cl)c(OC)c2F)cc(N)c1Cl | 172 to 174 |
| Cc1cc(-c2nc3c(C)ccnn3c2-c2ccnc(NC(=O)c3ccc(F)cc3)c2)ccc1F | 243 to 244 |
| COc1ccc(CC2C3=C(CCCC3)CCN2C(=O)C2CCC2)cc1 (stereo not drawn) | 89 to 91 |
| COc1ccc(-c2cccc(C(=O)O)c2)c2c1OC(C)(C)C2 | 220 to 225 |
| O=C1Nc2ccccc2Nc2nc(-c3ccccc3)ncc21 | 260 to 261 |
| COC(=O)c1ccc(N2CCSC2=N)c([N+](=O)[O-])c1 | 156 |
| C=COCCOc1ccc(C2(c3ccc(OCCOC=C)cc3)CCC(c3ccc(OCCOC=C)cc3)(c3ccc(OCCOC=C)cc3)CC2)cc1 | 138 to 139 |
| Cc1ncc2n1-c1ccc(Cl)cc1C(c1ccccc1F)=NC2O (stereo not drawn) | 185 to 186 |
| CN(C)CCNC(=O)c1ccccc1-c1nnc(CSCCOc2ccccc2)o1 | 80 to 85 |
| CCn1nc(-c2ccc(Oc3nc4cccnc4n3C)cc2)c2nccnc21 | 161 to 162 |

Now from value to compound:

| melting point [°C] | SMILES |
| --- | --- |
| 154 to 156 | Fc1ccc(COc2cccnc2NC(=S)Nc2ccc(Cl)cc2)c(F)c1 |
| 148 to 158 | COC(=O)c1csc2c(=O)cc(C(F)(F)F)oc12 |
| 142 | CCOC(=O)OCC(F)(F)Cn1nc(C)c(-c2ccc3c(c2)NC(=O)CO3)c1-c1ccc(F)cc1 |
| 127 to 129 | COc1cc(C(=O)c2ccccc2F)cc([N+](=O)[O-])c1O |
| 136 to 138 | COc1cccc(C=CC(=O)C(=O)O)c1OC |
| 173 to 174 | COCc1c(C(=O)OC(C)C)ncc2[nH]c3cccc(OCc4ccccc4)c3c12 |
| 78 to 80 | CN1C(=O)C(c2cccc(OCC3CC3)c2)(c2cnn(CC(F)(F)F)c2)N=C1N (stereo not drawn) |
| 246 to 248 | O=c1[nH]c2ncc(-c3cn[nH]c3)nc2n1CC1CCCCC1 |
| 237 to 238 | CN(C)c1ncc(-c2cccc(-n3cnc4cc(-n5cccc5)ccc43)c2)cn1 |
| 49 to 50 | CCCCCN(CCc1ccccc1)C(=O)NCC(C)Cc1ccncc1 (stereo not drawn) |
| 134 to 135 | Nc1ccc(Cl)c(Cl)c1CO |
| 243 to 246 | O=S(=O)(Nc1cccc(Nc2nc(NC3CCCC3)c3nc[nH]c3n2)c1)C(F)(F)F |
| 160 to 161 | CCOC(=O)CCCSc1ncnc2c(O)n(C)nc12 |
| 106 to 117 | Clc1cc2c(nc1-c1ccccc1Br)OCC2 |
| 181 to 182 | Cc1cc(C(=O)N(C2CCCCC2)C2CCCC2)ccc1Cn1cnc2cccnc21 |
| 163 to 164 | COc1cc(CCCC2SC(=O)NC2=O)cc(OC)c1OCc1coc(/C=C/c2ccccc2)n1 (stereo not drawn) |
| 139 to 141 | CCCCNC(=O)NC(=N)c1ccccc1 |
| 292 to 293 | N#Cc1coc2cc(O)ccc2c1=O |
| 129 to 131 | Cc1nc2cccc3nc(SCCCCNS(=O)(=O)C(F)(F)F)c1n23 |
| 124 to 126 | CC(=O)c1ccc(OCc2ccccc2)c2c1OC(C)(C)C(=O)N2 |
| 95 to 96 | COC(=O)C(N)Cc1ccc(OCCN(C)c2nc3ccccc3o2)cc1 (stereo not drawn) |
| 248 | CCOc1ccc(S(=O)(=O)N2CCN(C)CC2)cc1-c1nc2c([nH]1)c1nncn1c(=O)n2CC |
| 165 to 167 | Cc1c(CN2CCN(c3cccc(C(F)(F)F)c3)CC2)cc(-c2ccc(Cl)cc2)n1-c1ccc(Cl)cc1 |
| 95 | Cc1ccc(N(c2ccc(C)cc2)c2c(F)cc(F)c(F)c2F)cc1 |
| 70 | CCOC(=O)CCc1nc(-c2cccc(OC)c2)nc2ccccc12 |
| 96 to 98 | COc1ccc(C(=O)Nc2c(Cl)cc(C=O)cc2Cl)cc1OC1CCCC1 |
| 158 to 160 | Cc1cc(SC2=C(O)CC(C3CCCC3)(C3CCCC3)OC2=O)c(C(C)(C)C)cc1CO |

| melting point [°C] | SMILES |
| --- | --- |
| 231 to 232 | CC(=O)c1sccc1CN1C(=O)C(NC(=O)Nc2cccc(C)c2)N=C(C2CCCCC2)c2ccccc21 (racemic) |
| 137 to 139 | CC(C)Oc1cn(-c2cccc(C(F)(F)F)c2)nc(-c2ccnn2-c2ccccc2)c1=O |
| 198 to 200 | CN1C(=O)N2C(=NC1(C)C)N(C(=O)Nc1ccc(Cl)c(Cl)c1)c1ccccc12 |
| 116 to 118 | COC(=O)/C=C/C1=C(c2ccc(OC)cc2)c2ccc(OC)cc2CC1 |
| 132 to 134 | Cc1noc(NS(=O)(=O)c2cccc(Cl)c2)c1Br |
| 135 to 136 | CC(=O)N1CCc2cc(O)ccc2C1 |
| 106 to 108 | C[C@@H]1CCC[C@H](C)N1CCN1CCN(CCCN2CCCCC2)C1=C(C#N)C#N |
| 212 to 214 | Cc1ccc(Nc2nc(C)cs2)nc1 |
| 129 to 132 | CCOC(=O)Cc1cccc2c(-c3ccc(N)cc3)nccc12 |
| 55 to 58 | C=CCc1cc2c(cc1O)C(C)(C)C(CCO)O2 (stereo not drawn) |
| 206 to 209 | COc1ccc(COc2ccc(C(=O)C3=C(O)C(=O)N(c4ccc(C)nn4)C3c3ccc(OC(F)(F)F)cc3)cc2)cc1 (stereo not drawn) |
| 94 to 95 | C=CC(=O)NCCOC(C)(C)OCCNC(=O)C=C |
| 166 to 169 | O=C(N[C@@H](Cc1ccccc1)C(=O)O)c1cnccn1 |
| 237 to 240 | O=C1NC(=O)c2c1c(-c1ccccc1Cl)cc1oc3cc(OS(=O)(=O)C(F)(F)F)c(O)cc3c21 |
| 105 to 107 | c1cc2c3c(c1)nc(SCc1ccncc1)n3CCC2 |
| 171 to 172 | Nc1cc(Nc2cccc(Cl)c2)ncn1 |
| 225 | COC1=CC(=O)N([C@@H]2c3cc(C#N)ccc3OC(C)(C)[C@H]2O)C1 (relative stereo) |
| 59 to 61 | COC(=O)C(CC(=O)c1ccc(Oc2ccccc2)cc1)SC(C)=O (stereo not drawn) |
| 211 to 212 | O=C(c1cc(-c2ccc(F)cc2)c(-c2ccc(F)cc2)[nH]1)C(F)(F)F |
| 180 to 182 | CO/N=C1\CCCC[C@@H]1NC(=O)c1ncc(O[C@@H](C)C(F)(F)F)c(-c2ccc(Cl)cc2)n1 |
| 85 to 86 | COc1ccc2c(NCCN3CCOCC3)noc2c1 |
| 181 to 182 | CC(C)Cn1nnc2c3ncnc-3c3ccncc3n21 |
| 181 to 183 | CC(C)N1OCCC(=Cc2cc(C(C)(C)C)c(O)c(C(C)(C)C)c2)C1=O |
| 121 to 125 | O=C1N(c2ccc(Cl)cc2Cl)Cc2cnc(Nc3ccccc3)nc2N1c1ccc(CO)cc1 |
| 206 to 208 | COCc1cc(-c2nnc3c4ccccc4c(OCc4ncnn4C)nn23)no1 |
| 177 to 180 | CC(C)N1CC(=O)N(C(C)C)CC1=O |
